Data from patent US4120892A, “Anionic naphthalene thioureido naphthalene sulfonic acids” (American Cyanamid Company, priority 1977, dated 1978).
Structures can show the parent of a compound that is named as a salt. Where two headings read alike, the source gives them in different places.

Assays:
[1] = reported in The New England Journal of Medicine, 286, 808-812 (1972); cited from earlier work
[2] = system: complement system; details: reported in the literature; cited from earlier work
[3] = system: shunt pathway; assay: Test, Code 036 (C-Shunt inhibitor); format: cell-based, human; details: activity in wells, two-fold serial dilution assay; higher well number indicates higher activity
From the text: (§1) An active inhibitor protects C2 from C1 and C4; (ii) Test, Code 035 (C3-C9 inhibitor -- This test determines the ability of the late components of human complement (C3-C9) to lyse EAC 142 in the presence of appropriate dilutions of the test compound. An active inhibitor protects EAC 142 from lysis by human C3-C9; (iii) Test, Code 036 (C-Shunt inhibitor) -- In this test human erythrocytes rendered fragile are lysed in autologous serum via the shunt pathway activated by cobra venom factor in the presence of appropriate dilutions of the test compound. Inhibition of the shunt pathway results in failure of lysis; (iv) Forssman Vasculitis Test -- Here, the well known complement dependent lesion, Forssman vasculitis, is produced in guinea pigs by intradermal injection of rabbit anti-Forssman antiserum. […]
(§2) With reference to Table I, guinea pigs weighing about 300 g were dosed intravenously (i.v.) or intraperitoneally (i.p.) with 200 mg/kg of the test compound dissolved in saline and adjusted to pH 7-8. […] Percent inhibition was calculated by comparison with simultaneous controls. […]

[4] = system: human C1; assay: Test, Code 026 (C1 inhibitor); format: biochemical; details: activity in wells, two-fold serial dilution assay; higher well number indicates higher activity
From the text: as §1, §2

[5] = system: late components of human complement (C3-C9); assay: Test, Code 035 (C3-C9 inhibitor; C-Late); format: cell-based; details: activity in wells, two-fold serial dilution assay; higher well number indicates higher activity
From the text: as §1, §2

[6] = system: whole complement; assay: In vivo complement inhibition in guinea pigs (serum whole complement, capillary tube assay); details: Cavia porcellus, ip, guinea pig, intraperitoneal
From the text: An active inhibitor protects C2 from C1 and C4; (ii) Test, Code 035 (C3-C9 inhibitor -- This test determines the ability of the late components of human complement (C3-C9) to lyse EAC 142 in the presence of appropriate dilutions of the test compound. An active inhibitor protects EAC 142 from lysis by human C3-C9; (iii) Test, Code 036 (C-Shunt inhibitor) -- In this test human erythrocytes rendered fragile are lysed in autologous serum via the shunt pathway activated by cobra venom factor in the presence of appropriate dilutions of the test compound. Inhibition of the shunt pathway results in failure of lysis; (iv) Forssman Vasculitis Test -- Here, the well known complement dependent lesion, Forssman vasculitis, is produced in guinea pigs by intradermal injection of rabbit anti-Forssman antiserum. The lesion is measured in terms of diameter, edema and hemorrhage and the extent to which a combined index of these is inhibited by prior intraperitoneal injection of the test compound at 200 mg/kg is then reported, unless otherwise stated; (v) Forssman Shock Test -- Lethal shock is produced in guinea pigs by an i.v. injection of anti-Forssman antiserum and the harmonic mean death time of treated guinea pigs is compared with that of simultaneous controls; (vi) Complement Level Reduction Test -- In this test, the above dosed guinea pigs, or others, are bled for serum and the complement level is determined in undiluted serum by the capillary tube method of U.S. Pat. No. 3,876,376 and compared to undosed control guinea pigs; and (vii) Cap 50 Test -- Here, appropriate amounts of the test compound are added to a pool of guinea pig serum in vitro, after which the undiluted serum capillary tube assay referred to above is run. The concentration of compound inhibiting 50% is reported.
as §2

| Molecule | treatment of hereditary angioneurotic edema [1] | anticomplementary effect / complement inhibition [2] | further results |
| --- | --- | --- | --- |
| NC[C@H]1CC[C@H](C(=O)O)CC1 [tranexamic acid] | used with success in the treatment of hereditary angioneurotic edema |  |  |
| 8-(3-benzamido-4-methylbenzamido)naphthalene-1,3,5-trisulfonic acid [Suramin] | used with success in the treatment of hereditary angioneurotic edema | competitive inhibitor of the complement system |  |
| heparin |  | anticomplementary effect |  |
| Nc1ccc2cc(S(=O)(=O)O)cc(O)c2c1N=Nc1ccc(NC(=O)Nc2ccc(N=Nc3c(N)ccc4cc(S(=O)(=O)O)cc(O)c34)c(S(=O)(=O)O)c2)cc1S(=O)(=O)O [chlorazol fast pink, 3,3'-ureylenebis-[6-(2-amino-8-hydroxy-6-sulfo-1-naphthylazo)]benzenesulfonic acid, tetrasodium salt] |  | anticomplementary effect |  |
| O=S(=O)(O)c1cc(NC(=S)Nc2cc(S(=O)(=O)O)c3cc(NC(=S)Nc4cc(S(=O)(=O)O)cc5cc(S(=O)(=O)O)cc(S(=O)(=O)O)c45)cc(S(=O)(=O)O)c3c2)c2c(S(=O)(=O)O)cc(S(=O)(=O)O)cc2c1 [8,8'-[4,8-Disulfo-2,6-naphthylenebis(2-thioureylene)]-di-1,3,6-naphthalenetrisulfonic acid octasodium salt] |  |  | Shunt Inhibition 036 Wells [3]: +2 Wells; Cl 026 Wells [4]: +5 Wells; C-Late 035 Wells [5]: +2 Wells; inhibition at 200 mg/kg ([6]; 0.5 h, 30 minutes, read-out: In Vivo Activity (Guinea Pig) % Inhibition, Intraperitoneal, 30 minutes): -86%; inhibition at 200 mg/kg ([6]; 1 h, 60 minutes, read-out: In Vivo Activity (Guinea Pig) % Inhibition, Intraperitoneal, 60 minutes): -84%; inhibition at 200 mg/kg ([6]; 2 h, 120 minutes, read-out: In Vivo Activity (Guinea Pig) % Inhibition, Intraperitoneal, 120 minutes): -93% |
| NCCCCCC(=O)O [epsilon-aminocaproic acid] | used with success in the treatment of hereditary angioneurotic edema |  |  |
